Results on 13 sequences are retold here after patent publication US8106015B2, “Method for enhancing immune response with peptide” (Juridical Foundation The Chemo-Sero-Therapeutic Research …, priority 2007, dated 2012).

Where “and” joins values, the source holds several entries; their conditions need not be identical. Equal values may be shown once.

Format in all cases: in vivo, C57BL/6 mice
Test [1] has as its system anti-Aβ IgG antibody. Nature of the test: Example 5: anti-Aβ IgG antibody titer, cysteine at the C-terminal, the N-terminal and both terminals. The settings on record: Day 7 from the final 4th immunization; for Antibody titer, Mean: group mean of 4 mice; for Antibody titer: individual animals (No. 1-4), 100 μg/mouse, 2-week intervals, no adjuvant.
The test system of test [2] is anti-Aβ IgG antibody. Nature of the test: Example 6: anti-Aβ IgG antibody titer, Aβ peptide sequences with insertion of cysteine. To be noted: Day 7 from the final 4th immunization; for Antibody titer, Mean: group mean of 4 mice; for Antibody titer: individual animals (No. 1-4), 100 μg/mouse, 2-week intervals, no adjuvant.
In test [3] the test system is anti-Aβ IgG antibody. The test can be described thus: Example 3: anti-Aβ IgG antibody titer, Aβ peptides with addition of cysteine of 26-40 amino acids in length. The settings on record: Day 7 from final 3rd immunization; for Antibody titer, Mean: group mean of 4 mice; for Antibody titer: individual animals (No. 1-4), 100 μg/mouse, 3 times at 2-week intervals, no adjuvant.

In test [4] the test system is anti-Aβ IgG antibody. The test can be described thus: Example 1: anti-Aβ IgG antibody titer in murine serum after immunization with Aβ peptides with and without addition of cysteine.
For test [5], the system named is anti-Aβ IgG antibody. Nature of the test: Example 2: anti-Aβ IgG antibody titer, Aβ peptide with cysteine vs carrier-linked Aβ peptide with/without adjuvant. To be noted: Day 7 from final 3rd immunization.
Test [6] deals with anti-Aβ IgG antibody. The test can be described thus: Example 4: anti-Aβ IgG antibody titer, Aβ peptides with 0, 1 or 2 molecules of cysteine added.
The test system of test [7] is anti-Aβ IgG antibody. The test can be described thus: Example 7: anti-Aβ IgG antibody titer, Aβ peptide with cysteine plus exogenous amino acid sequence. To be noted: Day 7 from the final 4th immunization; for Antibody titer, Mean: group mean of 4 mice; for Antibody titer: individual animals (No. 1-4), 100 μg/mouse, 2-week intervals, no adjuvant.
Test [8] concerns anti-Aβ IgG antibody. Nature of the test: Example 10: anti-Aβ IgG antibody titer, Aβ peptide with/without cysteine, with and without adjuvant. The settings on record: Day 7 from final 3rd immunization.
The mark [9] stands for this setting: group mean of 4 mice, serum, 100 μg/mouse intradermally or subcutaneously, 2-week intervals, no adjuvant.

As to “CDAEFRHDSGYEVHHQKLVFFAEDVGSNK [Cys28AA, Peptide with addition of 1 molecule of cysteine at the N-terminal]”, the “Antibody titer, Mean” value in test [1] amounted to 5891.8 ng/mL. In addition, the Antibody titer in test [1] (listed as Cys2BAA) is 7708 ng/mL and 423 ng/mL and 15328 ng/mL and 108 ng/mL.
For the sequence “CDAEFRHDSGYEVHHQKLVFFAEDVGSNKC [Cys28AACys, Peptide with addition of each 1 molecule of cysteine at the C-terminal and the N-terminal]”, in test [1], the “Antibody titer, Mean” value is on record as 13051.6 ng/mL; the Antibody titer was 772 ng/mL and 49849 ng/mL and 1537 ng/mL and 48 ng/mL.
As for “DAEFRHDCSGYEVHHQKLVFFAEDVGSNK [28AA7Cys, 28-amino acid Aβ peptide with insertion of cysteine after residue 7]”, in test [2], the “Antibody titer, Mean” value came out at 23.0 ng/mL; the Antibody titer is 21 ng/mL and 24 ng/mL and 17 ng/mL and 30 ng/mL.
Turning to “DAEFRHDSGYCEVHHQKLVFFAEDVGSNK [28AA10Cys, 28-amino acid Aβ peptide with insertion of cysteine after residue 10]”, in test [2], the “Antibody titer, Mean” value stood at 17.7 ng/mL; the Antibody titer is 26 ng/mL and 19 ng/mL and 18 ng/mL and 8 ng/mL.
Take “DAEFRHDSGYEVHHQKLVCFFAEDVGSNK [28AA18Cys, 28-amino acid Aβ peptide with insertion of cysteine between 18th-19th amino acid residues]”: in test [2], the “Antibody inducing ability” value was “antibody inducing ability was found”; the “Antibody inducing ability as compared to the group administered with 28AACys” value was “higher antibody inducing ability”; the “Antibody titer, Mean” value is 611899.2 ng/mL; the Antibody titer was 2163676 ng/mL and 92083 ng/mL and 54037 ng/mL and 137801 ng/mL.
For the sequence “DAEFRHDSGYEVHHQKLVFFAEDVGCSNK [28AA25Cys, Aβ peptide with insertion of cysteine between the 25th and 26th amino acid residues]”, in test [2], the “Antibody inducing ability” value was “antibody inducing ability was found”; the “Antibody titer, Mean” value is listed as 6860.8 ng/mL; the Antibody titer was 14972 ng/mL and 4721 ng/mL and 4483 ng/mL and 3267 ng/mL.
As for “DAEFRHDSGYEVHHQKLVFFAEDVGSC [26AACys, 26-amino acid Aβ peptide with addition of cysteine at the C-terminal]”, in test [3], the “Antibody titer, Mean” value was determined as 24.5 ng/mL; the Antibody titer is 39 ng/mL and 19 ng/mL (2×) and 21 ng/mL.
In the case of “DAEFRHDSGYEVHHQKLVFFAEDVGSNC [27AACys, 27-amino acid Aβ peptide with addition of cysteine at the C-terminal]”, in test [3], the “Antibody titer, Mean” value worked out at 19.0 ng/mL; the Antibody titer was 15 ng/mL and 19 ng/mL (2×) and 24 ng/mL.
Regarding “DAEFRHDSGYEVHHQKLVFFAEDVGSNKC [28AACys, 28-amino acid Aβ peptide with addition of cysteine]”, in test [4] (compared to the same Aβ peptide fragment without addition of cysteine), the “Increase in the antibody titer with addition of cysteine” value is recorded as “about 39 fold”. The “Antibody titer, Day 7 from 2nd administration, Mean” value in test [4] (setting [9]) came out at 157767.25 ng/mL. In test [4] (setting [9]), the “Antibody titer, Day 7 from 3rd administration, Mean” value worked out at 26043.00 ng/mL. The “Antibody titer, Day 7 from 2nd administration” value in test [4] (individual animals (No. 1-4), serum, 100 μg/mouse intradermally or subcutaneously, 2-week intervals, no adjuvant) is 74096.0 ng/mL and 30542.0 ng/mL and 389239.0 ng/mL and 137192.0 ng/mL. The “Antibody titer, Day 7 from 3rd administration” value in test [4] (individual animals (No. 1-4), serum, 100 μg/mouse intradermally or subcutaneously, 3 times at 2-week intervals, no adjuvant) is 20265.0 ng/mL and 2337.0 ng/mL and 69198.0 ng/mL and 12372.0 ng/mL. Besides, the “Antibody titer, Mean” value in test [5] (group mean of 5 mice) is 4237.48 ng/mL; in test [3], 51916.1 ng/mL; in test [6] (group mean of 4 mice, Day 7 from the final 4th immunization) it was 5070.2 ng/mL; in test [1], 155867.0 ng/mL; in test [2], 18946.0 ng/mL; in test [7] it was 5070.2 ng/mL. Besides, the “Antibody titer, Mean” value in test [8] (group mean of 4 mice) came to 19243.7 ng/mL. Moreover, the Antibody titer in test [5] (individual animals (No. 1-5), primary 100 μg, 2nd and 3rd 50 μg per animal, 2-week intervals) is 1714.4 ng/mL and 5949.1 ng/mL and 10122.3 ng/mL and 716.6 ng/mL and 2685.0 ng/mL; in test [3] it was 3120 ng/mL and 2191 ng/mL and 115618 ng/mL and 86736 ng/mL; in test [6] (individual animals (No. 1-4), Day 7 from the final 4th immunization, 100 μg/mouse, 2-week intervals, no adjuvant), 211 ng/mL and 365 ng/mL and 19578 ng/mL and 127 ng/mL; in test [1] it was 290461 ng/mL and 94 ng/mL and 139927 ng/mL and 192986 ng/mL; in test [2], 20883 ng/mL and 10503 ng/mL and 38907 ng/mL and 5491 ng/mL; in test [7] it was 211 ng/mL and 365 ng/mL and 19578 ng/mL and 127 ng/mL. In addition, the Antibody titer in test [8] (individual animals (No. 1-4), 100 μg Aβ peptide per animal, 3 times at 2-week intervals) is 8847 ng/mL and 9458 ng/mL and 10446 ng/mL and 48224 ng/mL. Further, the “Antibody inducing ability against Aβ” value in test [3] is recorded as “higher antibody titer”. Further, the “Antibody inducing ability” value in test [6] (1 vs 2 molecules of cysteine at the C-terminal) was “almost the same antibody inducing ability”; in test [2] it was “antibody inducing ability was found”; in test [7], “antibody inducing ability was found”.
As to “DAEFRHDSGYEVHHQKLVFFAEDVGSNKCEIFEFTTD [Peptide with addition of cysteine at the C-terminal plus an exogenous peptide]”, in test [7], the “Antibody inducing ability” value is on record as “antibody inducing ability was found”; the “Antibody titer, Mean” value is listed as 21099.2 ng/mL; the Antibody titer is 8196 ng/mL and 28782 ng/mL and 2162 ng/mL and 45257 ng/mL.
As to “DAEFRHDSGYEVHHQKLVFFAEDVGSNKCGAIIG [33AA28Cys, Aβ peptide with insertion of cysteine between the 28th and 29th amino acid residues]”, in test [2], the “Antibody inducing ability” value is reported as “antibody inducing ability was found”; the “Antibody titer, Mean” value is 4105.0 ng/mL; the Antibody titer is 245 ng/mL and 1932 ng/mL and 29 ng/mL and 14214 ng/mL.
With “DAEFRHDSGYEVHHQKLVFFAEDVGSNKCGAIIGLM [35AA28Cys, Aβ peptide with insertion of cysteine between the 28th and 29th amino acid residues]”, in test [2], the “Antibody inducing ability” value is listed as “antibody inducing ability was found”; the “Antibody titer, Mean” value amounted to 6897.5 ng/mL; the Antibody titer was 1753 ng/mL and 17265 ng/mL and 2103 ng/mL and 6469 ng/mL.
Turning to “DAEFRHDSGYEVHHQKLVFFAEDVGSNKCTTD [28AACysTTD, Peptide with addition of cysteine at the C-terminal plus an exogenous peptide]”, in test [7], the “Antibody inducing ability” value is “antibody inducing ability was found”; the “Antibody titer, Mean” value is given as 28279.3 ng/mL; the Antibody titer is 46 ng/mL and 106899 ng/mL and 4316 ng/mL and 1855 ng/mL.
